The molecules below were run on Adjuvant induced experimental polyarthritis (assay: Adjuvant Arthritis Assay). Conditions: rats, 50 mg./kg. orally once daily on days 0 through 13 post-challenge; injected paw measured on 14th day; RSA = treated/control.
Format: in vivo, Royal Hart Wistar strain rats
Set-up: key: Active: If the mean RSA of all three tests is less than 0.753, the compound is considered active
Excerpt: Adjuvant induced experimental polyarthritis is a specific systemic disease of the rat which shares interesting similarities with rheumatoid arthritis. Specifically, the histology of the two diseases bears a remarkable resemblence as shown by C. M. Pearson, et al, Am. J. Path., 42, 73 (1963). E. M. Glenn, Am. J. Vet. Res., 27, (116), 339 (1966) has classified adjuvant induced polyarthritis as a crippling and permanent deformity resulting from diffuse connective tissue involvement around certain susceptible joints in the rat. Zahiri, et al., Can. Med. Ass. J., 101, 269 (1969) have shown that the fusiform swelling of the distal joints is associated with edema, congestion and synovitis including pannus formation, all of which precede the ultimate destruction of bone and cartilage. Furthermore, Zahiri, et al., indicate that the cartilage destruction in the joint is due to an invasive pannus which originates in the marginal synovium and extends across the articular surface to erode it. […] The most pointed reference showing the relationship between arthritis and joint deterioration is "An X-Ray Analysis of Adjuvant Arthritis in the Rat; the Effect of Prednisolone and Indomethacin", Blackham, et al., Agents and Action, 7 (No. 1), 145-151 (1977). In a similar manner, inhibition of the progress of arhtritis in paws of rats treated with the compounds of this invention also lessens associated joint deterioration.
Groups of three Royal Hart Wistar strain rats, weighing 200 + 10 g. each were injected intradermally in the right hind paw with Freund's adjuvant (dried human tubercle bacilli in a mineral oil vehicle) at a dose of 2 mg./kg. of body weight. Test compounds were administered orally in a 1.5% starch vehicle at 50 mg./kg. of body weight once daily on days 0 through 13 post-challenge. Control rats were treated in a similar manner, buty given only starch vehicle. On the l4th day post-challenge the diameter of the injected paw (primary lesion) was measured by micrometer caliper. From these measurements of inflamed paws a determination was made of the relative surface area (RSA). This is a ratio of the mean surface area of the paws of 3 treated rats/mean surface area of the paws of 60 control rats. If the RSA is equal to or less than 0.76, the compound is retested. After the second test, the mean RSA for the rat paws from both tests is calculated and if it is equal to or less than 0.736 the compound is tested a third time. If the mean RSA of all three tests is less than 0.753, the compound is considered active.

Row | Compound | Result (relative surface area (RSA) of injected paw)
1 | Nc1ccc(-c2ncnn2-c2ccc(F)cc2)cc1 [5-(p-Aminophenyl)-1-(p-fluorophenyl)-1H-1,2,4-triazole] | Active
2 | Nc1ccc(-c2ncnn2-c2ccc(Cl)cc2)cc1 [5-(p-Aminophenyl)-1-(p-chlorophenyl)-1H-1,2,4-triazole] | Active
3 | N#CCC(=O)Nc1ccc(-c2ncnn2-c2ccc(F)cc2)cc1 | Active
4 | Nc1ccc(-c2ncnn2-c2ccccc2F)cc1 [5-(p-Aminophenyl)-l-(o-fluorophenyl)-lH-l,2,4-triazole] | Active
5 | Nc1ccc(-n2ncnc2-c2ccc(F)cc2)cc1 [1-(p-AminopUhenyl)-5-(p-fluorophenyl)-1H-1,2,4-triazole] | Active
6 | CN(C)C=Nc1ccc(-c2ncnn2-c2ccc(F)cc2)cc1 [1-(p-Fluorophenyl)-5-[p-[(dimethylaminomethylene)-amino]phenyl]-1H-1,2,4-triazole] | Active
7 | O=[N+]([O-])c1ccc(-c2ncnn2-c2ccc(Br)cc2)cc1 [1-(p-Bromophenyl)-5-(p-nitrophenyl)-1H-1,2,4-triazole] | Active
8 | O=[N+]([O-])c1ccc(-c2ncnn2-c2ccccc2)cc1 [l-Phenyl-5-(p-nitrophenyl)-lH-l,2,4-triazole] | Active
9 | Nc1ccc(-c2ncnn2-c2ccc(Br)cc2)cc1 [5-(p-Aminophenyl)-l-(p-bromophenyl)-lH-l,2,4-triazole] | Active
10 | O=[N+]([O-])c1ccc(-n2ncnc2-c2ccc(F)cc2)cc1 [5-(p-Fluorophenyl)-1-(p-nitrophenyl)-1H-1,2,4-triazole] | Active
11 | O=[N+]([O-])c1ccc(-c2ncnn2-c2ccc(F)cc2)cc1 [1-(p-Fluorophenyl)-5-(p-nitrophenyl)-1H-1,2,4-triazole] | Active

Each molecule was assayed on carrageenin inflamed feet (assay: Carrageenin Edema Assay). Conditions: rats, 250 mg./kg. by gavage; measured 5 hours after drug administration (4 hours after carrageenin challenge).
Format: in vivo, Royal Hart, Wistar strain rats
Set-up: key: Active: If the mean ratio of test 1 and 2 is equal to or greater than 1.43, the compound is considered active
Protocol: Royal Hart, Wistar strain rats ranging in weight from 80 to 90 grams were used. The rats were fasted overnight prior to dosing but had free access to water. The test compounds were administered in aqueous suspension, by gavage, in a volume of 1.7 ml. per 50 grams of rat [corresponds to hydration volume used by Winter, et al., Proc. Soc. Exp. Biol. & Med., Ill, 544-547 (1962)]. The dose of all compounds was 250 mg./kq. The phlogistic agent used was carrageenin prepared as a sterile 1% suspension in 0.9% aqueous sodium chloride for routine testing. A volume of 0.05 ml. was injected into the plantar tissue of the right hind paw. Measurements were made 5 hours after drug administration (4 hours after carrageenin challenge). The paw of the unanesthetized rat was immersed in mercury exactly to an ink mark on the skin over the lateral malleolus. The mercury was contained in a glass cylinder 25 x 60 mm. The mercury column was connected with a Statham pressure transducer (model P23BB), range 0-5 cm. mercury. The output from the transducer was led through a model 260BLH signal conditioning unit and visualized by digital indicator. Volumes of both the normal and carrageenin inflamed feet were determined. The difference between the two measurements was considered to be the increased edema due to the carrageenin administration. Results were expressed as a control (C)/treated (T) efficacy ratio. (The ratio of mean edema volume of 8 control rats over the mean edema volume of 2 treated rats.) If the C/T ratio is equal to or greater than 1.41, the test is repeated. If the mean ratio of test 1 and 2 is equal to or greater than 1.43, the compound is considered active. The results of this test with typical compounds of this invention are recorded in Table

Row | Compound | Result (control (C)/treated (T) efficacy ratio of edema volume)
12 | O=S(=O)(c1ccc(-n2ncnc2-c2cnccn2)cc1)C(F)F [{1-[p-(Difluoromethylsulfonyl)phenyl]-1H-1,2,4--triazol-5-yl}pyrazine] | Active
13 | COc1cc(-c2nc(C)nn2-c2ccc(Br)cc2)cc(OC)c1OC [1-(p-Bromophenyl)-3-methyl-5-(3,4,5- -trimethoxyphenyl)-lH-1,2,4-triazole] | Active
14 | c1ccc(-n2ncnc2-c2ccncc2)cc1 [4-(1-Phenyl-1H-1,2,4-triazol-5-yl)pyridine] | Active
15 | c1ccc(-c2ncnn2-c2ccccc2)cc1 [1,5-Diphenyl-1H-1,2,4-triazole, 1,5-Diphenyl-lH-1,2,4-triazole] | Active
16 | Fc1ccc(-n2ncnc2-c2ccncc2)cc1 [4-[1-(p-Fluorophenyl)-1H-1,2,4-triazol-5-yl]pyridine] | Active
17 | O=[N+]([O-])c1ccc(-n2ncnc2-c2cnccn2)cc1 [(1-(p-Nitrophenyl)-1H-1,2,4-triazol-5-yl]pyrazine] | Active
18 | c1cncc(-c2nnc[nH]2)c1 [3-(4H-1,2,4-Triazol-3-yl)-pyridine] | Active
19 | Clc1ccc(-n2ncnc2-c2cnccn2)cc1 [2-fl-(p-Chlorophenyl)-lH-1,2,4-triazol-5-yllpyrazine] | Active

Each molecule was assayed on migration of macrophages (assay: Migratory Inhibition Test (capillary tube migration assay for MIF inhibitors)). Conditions: Dose 10 mcg./ml.; guinea pig peritoneal cells, 37°C. for 24 hours.
Format: cell-based, Male Hartley guinea pigs
Set-up: key: Active: Greater than 15% reversal of inhibition, c-b/a-b
Excerpt: Migratory Inhibition Test
Rheumatoid arthritis is a chronic inflammatory disease that is characterized by the migration of lymphocytes, macrophages and polymorphonuclear leukocytes to the sites of inflammation. The migration of lymphocytes and macrophages and their multiplication in situ is one reason for the very large increase in size of the normally thin synovial membrane which encloses the joint space. This transformed synovial membrane slowly grows over the articular surfaces and causes the destruction of the articular cartilage and other connective tissue structures of the joint. One of the mechanisms for the destruction of articular cartilage by the synovium is through the release of various hydrolytic enzymes by the resident macrophages which have been immobilized and activated by migration inhibitory factor (MIF). Macrophages stimulated by MIF are termed "activated macrophages" and undergo the following changes: (a) increased glucose oxidation, (b) increased ruffling of plasma membrane and increased spreading of cells, (c) synthesis and secretion of neutral proteases, (d) release of preformed lysosomal enzymes, (e) decreased migration from a capillary tube. […] The mechanism of cartilage destruction can be pictured as follows: [formula]
Drugs that can therefore block the release of MIF by lymphocytes or the activation of macrophages by MIF may be clinically effective in retarding the destructive joint damage which occurs in rheumatoid arthritis. Drugs can be tested as MIF inhibitors by using the capillary tube migration assay as follows: Male Hartley guinea pigs, weighing between 300 and 600 grams, were injected intraperitoneally with 25 ml. of Marcal 52 Oil@ (Humble Oil Co.). Three to four days later the guinea pigs were decapitated, the peritoneum opened and 50 ml. of cold Hank's solution added to the peritoneum. The Hank's solution containing the cell suspension was then aspirated into a separatory funnel. This procedure was repeated twice. […] Viability of the cells was then determined using trypan blue. […]

Row | Compound | Result (reversal of antigen inhibition of macrophage migration)
20 | c1ccc(-n2ncnc2-c2ccncc2)cc1 [4-(1-Phenyl-1H-1,2,4-triazol-5-yl)pyridine] | Active
21 | O=[N+]([O-])c1ccc(-c2ncnn2-c2ccc(Br)cc2)cc1 [1-(p-Bromophenyl)-5-(p-nitrophenyl)-1H-1,2,4-triazole] | Active
22 | Nc1ccc(-c2ncnn2-c2ccc(Br)cc2)cc1 [5-(p-Aminophenyl)-l-(p-bromophenyl)-lH-l,2,4-triazole] | Active

Reference: EP0051084A1, “Substituted 1H-1,2,4-triazoles” (AMERICAN CYANAMID COMPANY, priority 1980, dated 1982)
